Assay [1] addresses protease activity in feces. Description: General Fecal Enzymes Method (casein-resorufin cleavage). The class given is biochemical, infant. The conditions noted are these: fecal suspension, casein-resorufin substrate, pH 7.8, 37° C. for 60 minutes. An excerpt:
(§1) Pooled infant feces (at least five different samples) are collected in a manner to keep them free of urine and contamination and mixed with water to obtain a weight by weight (w/w) mixture (e.g., 1:50 w/w). This mixture is then mixed thoroughly to obtain a homogeneous suspension by homogenization or sonication. […] (Also, to ensure complete linearity the final absorbance should never exceed 1.5 OD405 units). If the activity of the pooled infant feces is outside this range, it is not possible to accurately determine IC50 values for putative protease inhibitors. However, the range of enzyme activity may be adjusted by increasing or decreasing the dilution factor accordingly for each enzyme. If this is not possible, a different group of subjects should be used to obtain the sample pool.
The general method described above for obtaining a sample of feces suitable for use in Specific Fecal Enzyme Methods can be easily adapted by one skilled in the art to obtain appropriate samples of feces suitable for use in the General Fecal Enzymes Method listed below without undue experimentation.
To test the efficacy of protease inhibitors against the protease activity in feces, 50 μL of inhibitor and 50 μL of fecal suspension are added to a 1.5 mL microcentrifuge tube. The microcentrifuge tube is mixed by inversion and incubated at 25° C. for 45 minutes. Then, 50 μL of protease buffer (200 mM TRIS buffer containing 20 mM CaCl2, pH 7.8) is added to the microcentrifuge tube. The microcentrifuge tube is again mixed by inversion and incubated at 25° C. for 45 minutes. […] The microcentrifuge tube is again mixed by inversion and incubated at 37° C. for 60 minutes for the substrate cleavage reaction to take place. Then, 480 μL of trichloroacetic acid (5% w/v) is added to stop the reaction and precipitate any unreacted casein-resorufin. The microcentrifuge tube is mixed by inversion incubated at 37° C. for 15 minutes. […] Then, 400 μL of the supernatant is added to 600 μL of assay buffer (0.5 M TRIS, pH 8.8) in a cuvette. […] The same procedure is repeated without the putative inhibitor. […] Before the start of the reaction, A and Ai are nearly zero. […] The rates, vi and v, and the inhibitor concentration [I] are used to calculate IC50 according to the equation expressed above.

The target of the next assay is LAP activity in feces. In words: Fecal LAP Activity (Specific Fecal Enzyme Method). It is filed as biochemical. The settings on record: pooled infant fecal suspension, pH 7.2, 25° C.; read-out: IC50 Specific Fecal Enzyme Methods LAP.
Source text: (§2) The following is a general description of a method for obtaining a sample of feces suitable for use in Fecal Protease Methods. However, one skilled in the art will be able to adapt the method to obtain appropriate samples of feces suitable for use in any of the Specific Fecal Protease Methods listed below (i.e., lipase, urease, and amylase) without undue experimentation.
as §1
To test the efficacy of protease inhibitors against LAP activity in feces, inhibitor and LAP buffer (50 mM sodium phosphate, pH 7.2) are added in a cuvette to obtain a final volume of 0.95 mL. To this mixture, 0.03 mL of substrate (6 mM L-Leucine-p-nitroanilide) is added to the cuvette. The cuvette is mixed by inversion and incubated at 25° C. for 5 minutes. A volume of 0.02 mL of fecal suspension is added to the cuvette, mixed and the absorbance at 405 nm minus the absorbance at 490 nm measured over 5 minutes at 25° C. The rate of substrate cleavage in the presence of inhibitor (vi) is the slope of a plot relating the excess absorbance (i.e., the absorbance at 405 nm minus the absorbance at 490 nm) versus time. The same procedure is repeated without the putative inhibitor. The rate of substrate cleavage in the absence of inhibitor (v) is the slope of a plot relating the excess absorbance versus time. The rates, vi and v, and the inhibitor concentration [I] are used to calculate IC50 according to the equation expressed above.

For assay [2], the target named is trypsin activity in feces. In words: Fecal Trypsin Activity (Specific Fecal Enzyme Method). It is filed as biochemical. The settings on record: pooled infant fecal suspension, pH 8.2, 25° C.; read-out: IC50 Specific Fecal Enzyme Methods Trypsin.
Source text: as §2, §1
To test the efficacy of protease inhibitors against the trypsin activity in feces, inhibitor and trypsin buffer (50 mM TRIS, 20 mM CaCl2, pH 8.2) are added in a cuvette to obtain a final volume of 0.8 mL. To this mixture, 0.1 mL of substrate (3 mM Cbz-arginine-p-nitroanilide) is added to the cuvette. The cuvette is mixed by inversion and incubated at 25° C. for 5 minutes. A volume of 0.1 mL of fecal suspension is added to the cuvette, mixed and the absorbance at 405 nm minus the absorbance at 490 nm are measured over 5 minutes at 25° C. (The absorbance at 490 nm is a correction factor for the background absorbance due to the particulate fecal material, i.e., “interference”). The rate of substrate cleavage in the presence of inhibitor (vi) is the slope of a plot relating the excess absorbance (i.e., the absorbance at 405 nm minus the absorbance at 490 nm) versus time. The same procedure is repeated without the putative inhibitor. The rate of substrate cleavage in the absence of inhibitor (v) is the slope of a plot relating the excess absorbance versus time. The rates, vi and v, and the inhibitor concentration [I] are used to calculate IC50 according to the equation expressed above.

Assay [3] addresses chymotrypsin activity in feces. In words: Fecal Chymotrypsin Activity (Specific Fecal Enzyme Method). The class given is biochemical. The conditions noted are these: pooled infant fecal suspension, pH 7.6, 25° C.; read-out: IC50 Specific Fecal Enzyme Methods Chymotryp. An excerpt:
The following is a general description of a method for obtaining a sample of feces suitable for use in Fecal Protease Methods. However, one skilled in the art will be able to adapt the method to obtain appropriate samples of feces suitable for use in any of the Specific Fecal Protease Methods listed below (i.e., lipase, urease, and amylase) without undue experimentation. […] Pooled infant feces (at least five different samples) are collected in a manner to keep them free of urine and contamination and mixed with water to obtain a weight by weight (w/w) mixture (e.g., 1:50 w/w). This mixture is then mixed thoroughly to obtain a homogeneous suspension by homogenization or sonication. […] (Also, to ensure complete linearity the final absorbance should never exceed 1.5 OD405 units). If the activity of the pooled infant feces is outside this range, it is not possible to accurately determine IC50 values for putative protease inhibitors. However, the range of enzyme activity may be adjusted by increasing or decreasing the dilution factor accordingly for each enzyme. If this is not possible, a different group of subjects should be used to obtain the sample pool. […] The cuvette is mixed by inversion and incubated at 25° C. for 5 minutes. […] The rate of substrate cleavage in the presence of inhibitor (vi) is the slope of a plot relating the excess absorbance (i.e., the absorbance at 405 nm minus the absorbance at 490 nm) versus time. The same procedure is repeated without the putative inhibitor. The rate of substrate cleavage in the absence of inhibitor (v) is the slope of a plot relating the excess absorbance versus time. The rates, vi and v, and the inhibitor concentration [I] are used to calculate IC50 according to the equation expressed above.

For two compounds, IC50 results are on record in US6703536B2, “Disposable absorbent article having a skin care composition containing an enzyme inhibitor” (The Procter & Gamble Company, priority 1998, dated 2004).

Where a name gives a salt, the structure may show the parent alone. Some results are limits rather than exact numbers.

In turn, `NCCc1ccc(S(=O)(=O)F)cc1` [4-(2-aminoethyl)-benzenesulfonylfluoride hydrochloride] showed an IC50 in assay [1] of 217 µM.

As for `O=C(O)CN(CCN(CC(=O)O)CC(=O)O)CC(=O)O` [EDTA, ethylenediamine tetraacetic acid], the IC50 is over 3000 µM at LAP activity in feces, 100 µM in assay [2] and 100 µM in assay [3].
